Experimental data reported in PubChem BioAssay (NCI).
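GI50 is the concentration that inhibits growth by half. TGI: concentration producing complete growth inhibition.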

Key:
Test in all cases: inhibition of tumour cell growth, NCI panel, 384-well format
UO-31 renal = system: UO-31 renal
SK-OV-3 ovarian = system: SK-OV-3 ovarian
MDA-MB-468 breast = system: MDA-MB-468 breast
A549 NSCLC = system: A549 NSCLC
K-562 leukemia = system: K-562 leukemia
SF-539 CNS = system: SF-539 CNS
IGROV1 ovarian = system: IGROV1 ovarian
786-0 renal = system: 786-0 renal
NCI-H460 NSCLC = system: NCI-H460 NSCLC
NCI-H522 lung = system: NCI-H522 lung
HOP-62 NSCLC = system: HOP-62 NSCLC
U251 glioblastoma = system: U251 glioblastoma
EKVX NSCLC = system: EKVX NSCLC
SF-268 CNS = system: SF-268 CNS
SR leukemia = system: SR leukemia
RPMI-8226 leukemia = system: RPMI-8226 leukemia
HOP-92 NSCLC = system: HOP-92 NSCLC
UACC-257 melanoma = system: UACC-257 melanoma
COLO 205 colon = system: COLO 205 colon
TK-10 renal = system: TK-10 renal
OVCAR-8 ovarian = system: OVCAR-8 ovarian
DU-145 prostate = system: DU-145 prostate
MOLT-4 leukemia = system: MOLT-4 leukemia
MCF7 breast = system: MCF7 breast
BT-549 breast = system: BT-549 breast
NCI-H226 lung = system: NCI-H226 lung
SN12C renal = system: SN12C renal
M14 melanoma = system: M14 melanoma
NCI-H23 lung = system: NCI-H23 lung
ACHN renal = system: ACHN renal
MDA-MB-435 melanoma = system: MDA-MB-435 melanoma
UACC-62 melanoma = system: UACC-62 melanoma
T-47D breast = system: T-47D breast
MDA-MB-231 breast = system: MDA-MB-231 breast
SNB-19 CNS = system: SNB-19 CNS
HL-60(TB) leukemia = system: HL-60(TB) leukemia
SF-295 CNS = system: SF-295 CNS
HS 578T breast = system: HS 578T breast
SK-MEL-5 melanoma = system: SK-MEL-5 melanoma
NCI/ADR-RES ovarian = system: NCI/ADR-RES ovarian
SK-MEL-28 melanoma = system: SK-MEL-28 melanoma
RXF 393 renal = system: RXF 393 renal
CAKI-1 renal = system: CAKI-1 renal
HCC-2998 colon = system: HCC-2998 colon
A498 renal = system: A498 renal
CCRF-CEM leukemia = system: CCRF-CEM leukemia
HCT-15 colon = system: HCT-15 colon
NCI-H322M lung = system: NCI-H322M lung
LOX IMVI melanoma = system: LOX IMVI melanoma
MALME-3M melanoma = system: MALME-3M melanoma
OVCAR-4 ovarian = system: OVCAR-4 ovarian
OVCAR-5 ovarian = system: OVCAR-5 ovarian
SNB-75 CNS = system: SNB-75 CNS
KM12 colon = system: KM12 colon
OVCAR-3 ovarian = system: OVCAR-3 ovarian
HT29 colon = system: HT29 colon
PC-3 prostate = system: PC-3 prostate
SW-620 colon = system: SW-620 colon

## CN1CCN(c2nc(C3=C(c4c[nH]c5ccccc45)C(=O)NC3=O)c3ccccc3n2)CC1
UO-31 renal
  GI50: 17.9 µM
  TGI: 44.9 µM
SK-OV-3 ovarian
  GI50: 18.1 µM
  TGI: 38.8 µM
MDA-MB-468 breast
  GI50: 18.3 µM
  TGI: 32.5 µM
A549 NSCLC
  GI50: 16.9 µM
  TGI: 36.6 µM
K-562 leukemia
  GI50: 12.2 µM
  TGI: 24.7 µM
SF-539 CNS
  GI50: 15 µM
  TGI: 28.3 µM
IGROV1 ovarian
  GI50: 18.1 µM
  TGI: 34.5 µM
786-0 renal
  GI50: 13.8 µM
  TGI: 26.9 µM
NCI-H460 NSCLC
  GI50: 18.6 µM
  TGI: 32.6 µM
NCI-H522 lung
  GI50: 15.4 µM
  TGI: 28.7 µM
HOP-62 NSCLC
  GI50: 13.7 µM
  TGI: 26.7 µM
U251 glioblastoma
  GI50: 16.1 µM
  TGI: 29.9 µM
EKVX NSCLC
  GI50: 17.8 µM
  TGI: 33.2 µM
SF-268 CNS
  GI50: 18.1 µM
  TGI: 32.3 µM
SR leukemia
  GI50: 7.06 µM
  TGI: 19.7 µM
RPMI-8226 leukemia
  GI50: 10.1 µM
  TGI: 21.7 µM
HOP-92 NSCLC
  GI50: 15.8 µM
  TGI: 29.4 µM
UACC-257 melanoma
  GI50: 13.6 µM
  TGI: 26.5 µM
COLO 205 colon
  GI50: 6.82 µM
  TGI: 19.6 µM
TK-10 renal
  GI50: 17.8 µM
  TGI: 44.2 µM
OVCAR-8 ovarian
  GI50: 13.8 µM
  TGI: 27.6 µM
DU-145 prostate
  GI50: 16.3 µM
  TGI: 32.6 µM
MOLT-4 leukemia
  GI50: 13.1 µM
  TGI: 25.8 µM
MCF7 breast
  GI50: 10.9 µM
  TGI: 23 µM
BT-549 breast
  GI50: 13.5 µM
  TGI: 26.3 µM
NCI-H226 lung
  GI50: 13.4 µM
  TGI: 30.3 µM
SN12C renal
  GI50: 13.2 µM
  TGI: 26.3 µM
M14 melanoma
  GI50: 13.9 µM
  TGI: 26.8 µM
NCI-H23 lung
  GI50: 16.1 µM
  TGI: 29.8 µM
ACHN renal
  GI50: 15.5 µM
  TGI: 30 µM
MDA-MB-435 melanoma
  GI50: 16.6 µM
  TGI: 30.2 µM
UACC-62 melanoma
  GI50: 15.4 µM
  TGI: 28.8 µM
T-47D breast
  GI50: 20.2 µM
  TGI: 35.7 µM
MDA-MB-231 breast
  GI50: 15.4 µM
  TGI: 30.7 µM
SNB-19 CNS
  GI50: 19.8 µM
  TGI: 39.5 µM
HL-60(TB) leukemia
  GI50: 15 µM
  TGI: 28.2 µM
SF-295 CNS
  GI50: 18.6 µM
  TGI: 32.7 µM
HS 578T breast
  GI50: 16.8 µM
  TGI: 30.5 µM
SK-MEL-5 melanoma
  GI50: 5.58 µM
  TGI: 18.7 µM
NCI/ADR-RES ovarian
  GI50: 19.5 µM
  TGI: 41.3 µM
SK-MEL-28 melanoma
  GI50: 16.4 µM
  TGI: 30 µM
RXF 393 renal
  GI50: 15.1 µM
  TGI: 28.4 µM
CAKI-1 renal
  GI50: 16.3 µM
  TGI: 32.3 µM
HCC-2998 colon
  GI50: 17.7 µM
  TGI: 31.6 µM
A498 renal
  GI50: 15.3 µM
  TGI: 28.6 µM
CCRF-CEM leukemia
  GI50: 13.1 µM
  TGI: 25.9 µM
HCT-15 colon
  GI50: 12.1 µM
  TGI: 28.4 µM
NCI-H322M lung
  GI50: 16.3 µM
  TGI: 31.2 µM
LOX IMVI melanoma
  GI50: 16.1 µM
  TGI: 29.7 µM
MALME-3M melanoma
  GI50: 4.68 µM
  TGI: 16.2 µM
OVCAR-4 ovarian
  GI50: 21.8 µM
  TGI: 44.6 µM
OVCAR-5 ovarian
  GI50: 20.8 µM
  TGI: 44 µM
SNB-75 CNS
  GI50: 19.9 µM
  TGI: 37.3 µM
KM12 colon
  GI50: 3.7 µM
  TGI: 15.4 µM
OVCAR-3 ovarian
  GI50: 15.8 µM
  TGI: 30.7 µM
HT29 colon
  GI50: 13.9 µM
  TGI: 27.4 µM
PC-3 prostate
  GI50: 17.5 µM
  TGI: 34.3 µM
SW-620 colon
  GI50: 18.5 µM
  TGI: 32.6 µM
